In PMC7093416, “Selective USP7 inhibition elicits cancer cell killing through a p53-dependent mechanism” (Scientific Reports, 2020):
“And” between values parts separate entries of the source, which are not always exact repeats. Equal entries are not always repeated.

Tested on: panel of 484 cancer cell lines
Experiment: PRISM cancer cell line profiling, 5 days
Assay type: cell-based
Design: Viability: scale not given here; AUC: unit not given beside the values
Method: Cancer cell line profiling was performed using the Broad’s PRISM platform. Cell treatment and data analysis were performed as described in Yu et al[42]. Raw Luminex signal was converted to AUC values for each cell line as described. The resulting AUC profile for each compound was modeled against DepMap using the limma package in R[71]. Because hotspot mutation analysis was performed against DepMap, TP53 annotations in Fig. 6c,d are directly from DepMap.

[1] = 8MGBA_CENTRAL_NERVOUS_SYSTEM, pert_dose 6.10E-04
[2] = 253J_URINARY_TRACT, pert_dose 6.10E-04
[3] = 786O_KIDNEY, pert_dose 6.10E-04
[4] = 8305C_THYROID, pert_dose 6.10E-04
[5] = 8505C_THYROID, pert_dose 6.10E-04
[6] = A172_CENTRAL_NERVOUS_SYSTEM, pert_dose 6.10E-04
[7] = ACHN_KIDNEY, pert_dose 6.10E-04
[8] = AN3CA_ENDOMETRIUM, pert_dose 6.10E-04
[9] = ASPC1_PANCREAS, pert_dose 6.10E-04
[10] = BC3C_URINARY_TRACT, pert_dose 6.10E-04
[11] = BECKER_CENTRAL_NERVOUS_SYSTEM, pert_dose 6.10E-04
[12] = BFTC905_URINARY_TRACT, pert_dose 6.10E-04
[13] = BFTC909_KIDNEY, pert_dose 6.10E-04
[14] = BICR6_UPPER_AERODIGESTIVE_TRACT, pert_dose 6.10E-04
[15] = BICR16_UPPER_AERODIGESTIVE_TRACT, pert_dose 6.10E-04

Compound: COc1ccc(C2=N[C@@H](c3ccc(Cl)cc3)[C@@H](c3ccc(Cl)cc3)N2C(=O)N2CCNC(=O)C2)c(OC(C)C)c1 [Nutlin-3A]
- AUC (8MGBA_CENTRAL_NERVOUS_SYSTEM): 1.128
- MFI 8MGBA_CENTRAL_NERVOUS_SYSTEM [1]: 9934 and 14986 and 8645 and 10478 and 11554
- Viability [1]: 0.9428
- AUC (22RV1_PROSTATE): 1.096
- AUC (42MGBA_CENTRAL_NERVOUS_SYSTEM): 1.109
- MFI 42MGBA_CENTRAL_NERVOUS_SYSTEM (42MGBA_CENTRAL_NERVOUS_SYSTEM, pert_dose 6.10E-04): 4116 and 5824 and 3462 and 5974.5 and 4899
- AUC (253JBV_URINARY_TRACT): 0.9024
- AUC (253J_URINARY_TRACT): 0.9134
- MFI 253J_URINARY_TRACT [2]: 13400 and 14082 and 16791.5 and 16677.5 and 16246
- Viability [2]: 0.9155
- AUC (639V_URINARY_TRACT): 1.087
- AUC (647V_URINARY_TRACT): 1.106
- MFI 647V_URINARY_TRACT (647V_URINARY_TRACT, pert_dose 6.10E-04): 28744 and 33002 and 29259 and 22669.5 and 34567
- AUC (769P_KIDNEY): 0.9079
- AUC (786O_KIDNEY): 1.095
- MFI 786O_KIDNEY [3]: 5233.5 and 8009.5 and 6751 and 6471 and 5976.5
- Viability [3]: 0.8974
- AUC (5637_URINARY_TRACT): 1.131
- MFI 5637_URINARY_TRACT (5637_URINARY_TRACT, pert_dose 6.10E-04): 5164 and 5198 and 5608 and 5118 and 4250
- AUC (8305C_THYROID): 1.086
- MFI 8305C_THYROID [4]: 12807.5 and 11646.5 and 14452 and 19016 and 21699
- Viability [4]: 0.9334
- AUC (8505C_THYROID): 1.09
- MFI 8505C_THYROID [5]: 8489.5 and 8271 and 7453 and 9513 and 9868
- Viability [5]: 1.233
- AUC (2313287_STOMACH): 1.164
- AUC (A101D_SKIN): 0.8317
- AUC (A172_CENTRAL_NERVOUS_SYSTEM): 0.8527
- MFI A172_CENTRAL_NERVOUS_SYSTEM [6]: 9637 and 10480 and 8488 and 7646 and 8288
- Viability [6]: 1.171
- AUC (A204_SOFT_TISSUE): 0.961
- MFI A204_SOFT_TISSUE (A204_SOFT_TISSUE, pert_dose 6.10E-04): 193.5 and 222 and 295.5 and 243.5 and 208
- AUC (A375_SKIN): 0.8657
- MFI A375_SKIN (A375_SKIN, pert_dose 6.10E-04): 6835.5 and 8654.5 and 5268 and 5613 and 4840.5
- Viability (A375_SKIN, pert_dose 6.10E-04): 1.106
- AUC (A549_LUNG): 0.859
- MFI A549_LUNG (A549_LUNG, pert_dose 6.10E-04): 9119 and 8938 and 13071.5 and 13916 and 10911
- Viability (A549_LUNG, pert_dose 6.10E-04): 1.178
- AUC (A673_BONE): 1.118
- AUC (A704_KIDNEY): 0.9164
- AUC (A2058_SKIN): 1.115
- MFI A2058_SKIN (A2058_SKIN, pert_dose 6.10E-04): 18135 and 19395 and 19549.5 and 22935 and 20108
- Viability (A2058_SKIN, pert_dose 6.10E-04): 1.165
- AUC (A2780_OVARY): 0.8149
- MFI A2780_OVARY (A2780_OVARY, pert_dose 6.10E-04): 18911 and 15634 and 16575 and 14170.5 and 15163.5
- AUC (ABC1_LUNG): 1.193
- AUC (ACCMESO1_PLEURA): 1.068
- AUC (ACHN_KIDNEY): 0.8632
- MFI ACHN_KIDNEY [7]: 12459.5 and 11580 and 11974.5 and 13015.5 and 8174
- Viability [7]: 1.255
- AUC (AGS_STOMACH): 1.099
- MFI AGS_STOMACH (AGS_STOMACH, pert_dose 6.10E-04): 33881 and 40936.5 and 34938 and 35658 and 38326
- AUC (AN3CA_ENDOMETRIUM): 1.0825
- MFI AN3CA_ENDOMETRIUM [8]: 6120 and 10572 and 7019 and 6758 and 9328
- Viability [8]: 0.9599
- AUC (ASPC1_PANCREAS): 1.065
- MFI ASPC1_PANCREAS [9]: 18934.5 and 23594 and 20951.5 and 18601 and 21238
- Viability [9]: 1.138
- AUC (BC3C_URINARY_TRACT): 1.147
- MFI BC3C_URINARY_TRACT [10]: 12791.5 and 13915 and 8459 and 10458.5 and 8646
- Viability [10]: 1.328
- AUC (BCPAP_THYROID): 1.122
- AUC (BECKER_CENTRAL_NERVOUS_SYSTEM): 1.117
- MFI BECKER_CENTRAL_NERVOUS_SYSTEM [11]: 24187 and 19210 and 17010 and 22220 and 21019.5
- Viability [11]: 1.525
- AUC (BEN_LUNG): 1.146
- MFI BEN_LUNG (BEN_LUNG, pert_dose 6.10E-04): 7960 and 8798 and 6007 and 9178 and 9972.5
- Viability (BEN_LUNG, pert_dose 6.10E-04): 1.0724
- AUC (BFTC905_URINARY_TRACT): 1.2069
- MFI BFTC905_URINARY_TRACT [12]: 6936 and 8493 and 9950.5 and 8885 and 6674.5
- Viability [12]: 0.7676
- AUC (BFTC909_KIDNEY): 1.167
- MFI BFTC909_KIDNEY [13]: 11810 and 18038 and 14602 and 12914 and 16966
- Viability [13]: 1.223
- AUC (BHT101_THYROID): 1.133
- AUC (BICR6_UPPER_AERODIGESTIVE_TRACT): 1.14
- MFI BICR6_UPPER_AERODIGESTIVE_TRACT [14]: 13342 and 11342 and 11621 and 10074.5 and 14217
- Viability [14]: 1.497
- AUC (BICR16_UPPER_AERODIGESTIVE_TRACT): 1.202
- MFI BICR16_UPPER_AERODIGESTIVE_TRACT [15]: 5443.5 and 5515 and 3801.5 and 7225 and 7467
- Viability [15]: 1.266
- AUC (BICR31_UPPER_AERODIGESTIVE_TRACT): 1.128
- MFI BICR31_UPPER_AERODIGESTIVE_TRACT (BICR31_UPPER_AERODIGESTIVE_TRACT, pert_dose 6.10E-04): 17717 and 15090 and 19092 and 15830 and 14976
- AUC (BICR56_UPPER_AERODIGESTIVE_TRACT): 1.158
- AUC (BT474_BREAST): 1.172
- AUC (BT549_BREAST): 1.133
- AUC (BXPC3_PANCREAS): 1.49
- AUC (CADOES1_BONE): 1.1262
- Viability (CADOES1_BONE, pert_dose 6.10E-04): 1.326
- AUC (CAKI1_KIDNEY): 0.8906
- MFI CAKI1_KIDNEY (CAKI1_KIDNEY, pert_dose 6.10E-04): 21451 and 18142 and 20425 and 19719.5 and 25262.5
